Results published in US8796304B2, “Tricyclic imidazole compounds as PDE10 inhibitors” (H. Lundbeck A/S, priority 2010, dated 2014).

Tests used:
[1] = target: PDE10A enzyme (Homo sapiens (Human), UniProt Q9Y233); test: PDE10A inhibition assay (3H-cAMP, SPA beads); type: biochemical; conditions: 10 nM 3H-cAMP, 1 hour incubation; read-out: PDE10 IC50
Protocol: PDE10A can be expressed as full-length proteins or as truncated proteins, as long as they express the catalytic domain, PDE10A can be prepared in different cell types, for example insect cells or E. coli. […] Expression in coil is performed according to standard protocols. Briefly, the expression plasmids are transformed into the BL21(DE3) E. coli strain, and 50 mL cultures inoculated with the cells allowed to grow to an OD600 of 0.4-0.6 before protein expression is induced with 0.5 mM IPTG. Following induction, the cells are incubated overnight at room temperature, after which the cells are collected by centrifugation. Cells expressing PDE10A are resuspended in 12 mL (50 mM TRIS-HCl-pH8.0, 1 mM MgCl2 and protease inhibitors). The cells are lysed by sonication, and after all cells are lysed, TritonX100 is added according to Novagen protocols.
Reactions are initiated by addition of the cyclic nucleotide substrate, and reactions are allowed to proceed for one hr at room temperature before being terminated through mixing with 15 uL […] yttrium silicate SPA beads (Amersham).
Following a 1 hour incubation the reactions were terminated by addition of 15 uL 8 mg/mL yttrium silicate SPA beads (Amersham). […] were calculated by non linear regression using XLfit (IDBS).

[2] = test system: PCP induced hyperactivity in mice; test: Phencyclidine (PCP) induced hyperactivity; type: in vivo, mice (NMRI); conditions: Mus musculus
Protocol: Male mice (NMRI, Charles River) weighing 20-25 g are used. Eight mice are used in each group receiving the test compound (5 mg/kg) plus PCP (2.3 mg/kg) including the parallel control groups receiving the vehicle of the test compound plus PCP or vehicle injections only. The injection volume is 10 ml/kg. The experiment is made in normal light conditions in an undisturbed room. The test substance is injected per oss 60 min before injection of PCP, which is administered subcutaneous.
Immediately after injection of PCP the mice are placed individually in special designed test cage (20 cm×32 cm). The activity is measured by 5×8 infrared light sources and photocells spaced by 4 cm. The light beams cross the cage 1.8 cm above the bottom of the cage. […]
Motility is recorded in 5 min intervals for a period of 1 hour. The drug effect is calculated on the total counts during the 1 hour behavioral test period in the following manner:
The mean motility induced by vehicle treatment in the absence of PCP is used as baseline. The 100 percent effect of PCP is accordingly calculated to be total motility counts minus baseline. The response in groups receiving test compound is thus determined by the total motility counts minus baseline, expressed in percent of the similar result recorded in the parallel PCP control group. […]

[3] = test system: hyperactivity in rats induced by PCP; conditions: cited from earlier work
[4] = test system: amphetamine induced hyperactivity; conditions: rats; cited from earlier work
[5] = test system: catalepsy in rats; conditions: cited from earlier work

Sequence of PDE10A enzyme (Q9Y233 716-1055): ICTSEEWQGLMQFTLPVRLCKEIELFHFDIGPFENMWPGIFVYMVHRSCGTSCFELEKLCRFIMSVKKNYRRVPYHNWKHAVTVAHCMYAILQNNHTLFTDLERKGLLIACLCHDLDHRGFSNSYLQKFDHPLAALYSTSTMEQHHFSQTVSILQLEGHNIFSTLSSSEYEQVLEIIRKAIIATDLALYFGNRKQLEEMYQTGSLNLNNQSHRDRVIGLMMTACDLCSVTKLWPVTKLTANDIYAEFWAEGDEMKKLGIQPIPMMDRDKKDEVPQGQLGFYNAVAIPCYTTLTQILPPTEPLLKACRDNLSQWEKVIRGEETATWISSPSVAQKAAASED

Row | Compound | IC50 [1] | also measured
1 | Cc1ncc(C)n2nc(C=Cc3cn4c(n3)-c3ccccc3C4)nc12 (racemic) [2-[-2-(5,8-Dimethyl-[1,2,4]triazolo[1,5-a]pyrazin-2-yl)-vinyl]-5H-imidazo[2,1-a]isoindole] | 4.4 nM | –
2 | [2H]C([2H])([2H])c1ncc(C([2H])([2H])[2H])n2nc(CCc3cn4c(n3)-c3ccccc3C4([2H])[2H])nc12 [2-[2-(5,8-Bis(trideuteromethyl-[1,2,4]triazolo[1,5-a]pyrazin-2-yl)-ethyl]-5,5-dideutero-5H-imidazo[2,1-a]isoindole] | 0.4 nM | –
3 | Cc1ncc(C)n2nc(CCc3cn4c(n3)-c3ccccc3CC4)nc12 [2-[2-(5,8-Dimethyl-[1,2,4]triazolo[1,5-a]pyrazin-2-yl)-ethyl]-5,6-dihydro-imidazo[2,1-a]isoquinoline] | 0.81 nM | –
4 | Cc1ncc(C)n2nc(CCc3cn4c(n3)-c3ncccc3C4)nc12 [2-[2-(5,8-Dimethyl-[1,2,4]triazolo[1,5-a]pyrazin-2-yl)-ethyl]-5H-imidazo[1′,2′:1,2]pyrrolo[3,4-b]pyridine] | 46 nM | –
5 | Cc1ncc(C)n2nc(CCc3cn4c(n3)-c3cccnc3C4)nc12 [2-[2-(5,8-Dimethyl-[1,2,4]triazolo[1,5-a]pyrazin-2-yl)-ethyl]-5H-imidazo[1′,2′:1,5]pyrrolo[3,4-b]pyridine] | 3.8 nM | –
6 | Cc1ncc(C)n2nc(CCc3cn4c(n3)-c3cccc(F)c3C4)nc12 [2-[2-(5,8-Dimethyl-[1,2,4]triazolo[1,5-a]pyrazin-2-yl)-ethyl]-6-fluoro-5H-imidazo[2,1-a]isoindole] | 1.2 nM | –
7 | COc1cccc2c1Cn1cc(CCc3nc4c(C)ncc(C)n4n3)nc1-2 [2-[2-(5,8-Dimethyl-[1,2,4]triazolo[1,5-a]pyrazin-2-yl)-ethyl]-6-methoxy-5H-imidazo[2,1-a]isoindole] | 0.44 nM | –
8 | COc1ccc2c(c1)Cn1cc(CCc3nc4c(C)ncc(C)n4n3)nc1-2 [2-[2-(5,8-Dimethyl-[1,2,4]triazolo[1,5-a]pyrazin-2-yl)-ethyl]-7-methoxy-5H-imidazo[2,1-a]isoindole] | 0.29 nM | –
9 | COc1ccc2c(c1)-c1nc(CCc3nc4c(C)ncc(C)n4n3)cn1C2 [2-[2-(5,8-Dimethyl-[1,2,4]triazolo[1,5-a]pyrazin-2-yl)-ethyl]-8-methoxy-5H-imidazo[2,1-a]isoindole] | 6.9 nM | –
10 | Cc1ncc(C)n2nc(CCc3cn4c(n3)-c3c(F)cccc3C4)nc12 [2-[2-(5,8-Dimethyl-[1,2,4]triazolo[1,5-a]pyrazin-2-yl)-ethyl]-9-fluoro-5H-imidazo[2,1-a]isoindole] | 0.79 nM | –
11 | COc1cccc2c1-c1nc(CCc3nc4c(C)ncc(C)n4n3)cn1C2 [2-[2-(5,8-Dimethyl-[1,2,4]triazolo[1,5-a]pyrazin-2-yl)-ethyl]-9-methoxy-5H-imidazo[2,1-a]isoindole] | 0.44 nM | –
12 | Cc1ccc(C)n2nc(CCc3cn4c(n3)-c3ccccc3C4)nc12 [2-[2-(5,8-Dimethyl-[1,2,4]triazolo[1,5-a]pyridin-2-yl)-ethyl]-5H-imidazo[2,1-a]isoindole] | 0.69 nM | –
13 | Cc1cccc2nc(CCc3cn4c(n3)-c3ccccc3C4)nn12 [2-[2-(5-Methyl-[1,2,4]triazolo[1,5-a]pyridin-2-yl)-ethyl]-5H-imidazo[2,1-a]isoindole] | 6.1 nM | –
14 | Cc1cc(C)n2nc(SCc3cn4c(n3)-c3ccccc3C4)nc2n1 [2-[(5,7-dimethyl-[1,2,4]triazolo[1,5-a]pyrimidin-2-yl)sulfanylmethyl]-5H-imidazo[2,1-a]isoindole] | 260 nM | –
15 | Cc1c[n+]([O-])c(C)c2nc(CCc3cn4c(n3)-c3ccccc3C4)nn12 [2-[-2-(5,8-Dimethyl-7-oxy-[1,2,4]triazolo[1,5-a]pyrazin-2-yl)-ethyl]-5H-imidazo[2,1-a]isoindole] | 2.4 nM | –
16 | Cc1ncc(C)n2nc(CCc3cn4c(n3)-c3ccccc3C4)nc12 [2-[-2-(5,8-Dimethyl-[1,2,4]triazolo[1,5-a]pyrazin-2-yl)-ethyl]-5H-imidazo[2,1-a]isoindole] | 0.4 nM | inhibition at 5 mg/kg ([2]; at 5 mg/kg per os, PCP 2.3 mg/kg s.c.): 100%; ED50 ([2]; per os 60 min before PCP 2.3 mg/kg s.c., read-out: ED50, inhibition of PCP induced hyperactivity): 0.2 mg/kg
17 | Cc1ncc(C)n2nc(CCc3cn4c(n3)-c3ccc(F)cc3C4)nc12 [2-[-2-(5,8-Dimethyl-[1,2,4]triazolo[1,5-a]pyrazin-2-yl)-ethyl]-7-fluoro-5H-imidazo[2,1-a]isoindole] | 0.18 nM | –
18 | Cc1ncc(C)n2nc(CCc3cn4c(n3)-c3cc(F)ccc3C4)nc12 [2-[-2-(5,8-Dimethyl-[1,2,4]triazolo[1,5-a]pyrazin-2-yl)-ethyl]-8-fluoro-5H-imidazo[2,1-a]isoindole] | 3.1 nM | –
19 | Cc1ncc(C)n2nc(CCc3cn4c(n3)-c3ccccc3C4C(C)(C)O)nc12 (centres unmarked) [2-{2-[2-(5,8-Dimethyl-[1,2,4]triazolo[1,5-a]pyrazin-2-yl)-ethyl]-5H-imidazo[2,1-a]isoindol-5-yl}-propan-2-ol] | 21 nM | –
20 | COc1ccc(Cc2nccc3cc(OC)c(OC)cc23)cc1OC [Papaverine, papaverine] | – | Hyperactivity induced by PCP [3]: reduced hyperactivity; Reduction of amphetamine induced hyperactivity [4]: insignificant; Catalepsy on its own ([5]; alone): did not cause catalepsy on its own; Effect on the cataleptic effect of the D2 receptor antagonist haloperidol ([5]; together with haloperidol): potentiated the cataleptic effect
21 | Cc1cnc(CO)c2nc(CCc3cn4c(n3)-c3ccccc3C4)nn12 [{2-[2-(5H-Imidazo[2,1-a]isoindol-2-yl)-ethyl]-5-methyl-[1,2,4]triazolo[1,5-a]pyrazin-8-yl}-methanol] | 6.9 nM | –
